Source: patent publication US8691837B2, “Substituted imidazo ring systems and methods” (3M Innovative Properties Company, priority 2003, dated 2014)
Where a name gives a salt, the structure may show the parent alone.

CCCc1nc2c(N)nc3ccccc3c2n1CCCCCCCCCCCC(=O)c1ccccc1 (as salt: hydrochloride) [Example 16, 12-(4-Amino-2-propyl-1H-imidazo[4,5-c]quinolin-1-yl)-1-phenyldodecan-1-one hydrochloride]
melting point: 195 to 196 °C

CCCc1nc2c(N)nc3ccccc3c2n1CCCCCCCCCCCC(=O)N(C)OC (as salt: hydrochloride) [Example 21, 12-(4-Amino-2-propyl-1H-imidazo[4,5-c]quinolin-1-yl)-N-methoxy-N-methyldodecanamide hydrochloride]
melting point: 156 to 158 °C

CCCCc1nc2c(N)nc3ccccc3c2n1CCCC(C)=O [Example 2, 5-(4-Amino-2-butyl-1H-imidazo[4,5-c]quinolin-1-yl)pentan-2-one]
melting point: 173 to 176 °C

CCCCc1nc2c(N)nc3ccccc3c2n1CCCCCC(=O)c1ccccc1 [Example 4, 6-(4-Amino-2-butyl-1H-imidazo[4,5-c]quinolin-1-yl)-1-phenylhexan-1-one]
melting point: 149 to 151 °C

Nc1nc2ccccc2c2c1ncn2CCCCCC(=O)c1ccccc1 [Example 5, 6-(4-Amino-1H-imidazo[4,5-c]quinolin-1-yl)-1-phenylhexan-1-one]
melting point: 163 to 165 °C

Cc1nc2c(N)nc3ccccc3c2n1CCCC1(C)OCCO1 [Example 6, 2-Methyl-1-[3-(2-methyl-[1,3]dioxolan-2-yl)propyl]-1H-imidazo[4,5-c]quinolin-4-amine]
melting point: 193 to 195 °C

CCc1nc2c(N)nc3ccccc3c2n1CCCC1(C)OCCO1 [Example 7, 2-Ethyl-1-[3-(2-methyl-[1,3]dioxolan-2-yl)propyl]-1H-imidazo[4,5-c]quinolin-4-amine]
melting point: 195 to 196.5 °C

CCCc1nc2c(N)nc3ccccc3c2n1CCCC1(C)OCCO1 [Example 8, 1-[3-(2-Methyl-[1,3]dioxolan-2-yl)propyl]-2-propyl-1H-imidazo[4,5-c]quinolin-4-amine]
melting point: 184 to 186 °C

CCCCc1nc2c(N)nc3ccccc3c2n1CCCC1(C)OCCO1 [Example 9, 2-Butyl-1-[3-(2-methyl-[1,3]dioxolan-2-yl)propyl]-1H-imidazo[4,5-c]quinolin-4-amine]
melting point: 169 to 171.5 °C

CCOCc1nc2c(N)nc3ccccc3c2n1CCCC1(C)OCCO1 [Example 10, 2-Ethoxymethyl-1-[3-(2-methyl-[1,3]dioxolan-2-yl)propyl]-1H-imidazo[4,5-c]quinolin-4-amine]
melting point: 150 to 152 °C

CC(=O)CCCn1c(C)nc2c(N)nc3ccccc3c21 [Example 11, 5-(4-Amino-2-methyl-1H-imidazo[4,5-c]quinolin-1-yl)pentan-2-one]
melting point: 194 to 196 °C

CCc1nc2c(N)nc3ccccc3c2n1CCCC(C)=O [Example 12, 5-(4-Amino-2-ethyl-1H-imidazo[4,5-c]quinolin-1-yl)pentan-2-one]
melting point: 206 to 208 °C

CCCc1nc2c(N)nc3ccccc3c2n1CCCC(C)=O [Example 13, 5-(4-Amino-2-propyl-1H-imidazo[4,5-c]quinolin-1-yl)pentan-2-one]
melting point: 176 to 177 °C

CCOCc1nc2c(N)nc3ccccc3c2n1CCCC(C)=O [Example 14, 5-(4-Amino-2-ethoxymethyl-1H-imidazo[4,5-c]quinolin-1-yl)pentan-2-one]
melting point: 173 to 175 °C

CCCc1nc2c(N)nc3ccccc3c2n1CCCCCC(C)=O [Example 15, 7-(4-Amino-2-propyl-1H-imidazo[4,5-c]quinolin-1-yl)heptan-2-one]
melting point: 161 to 163 °C

CCCc1nc2c(N)nc3ccccc3c2n1CCCC(=O)CC(C)C [Example 17, 1-(4-Amino-2-propyl-1H-imidazo[4,5-c]quinolin-1-yl)-6-methylheptan-4-one]
melting point: 136 to 138 °C

CCCCCCC(=O)CCCn1c(CCC)nc2c(N)nc3ccccc3c21 [Example 18, 1-(4-Amino-2-propyl-1H-imidazo[4,5-c]quinolin-1-yl)decan-4-one]
melting point: 111 to 113 °C

CCCc1nc2c(N)nc3ccccc3c2n1CCCCCC(=O)N(C)OC [Example 19, 6-(4-Amino-2-propyl-1H-imidazo[4,5-c]quinolin-1-yl)-N-methoxy-N-methylhexanamide]
melting point: 134 to 135 °C

CCCc1nc2c(N)nc3ccccc3c2n1CCCC(=O)N(C)OC [Example 20, 4-(4-Amino-2-propyl-1H-imidazo[4,5-c]quinolin-1-yl)-N-methoxy-N-methylbutyramide]
melting point: 163 to 165 °C

Cc1nc2c(N)nc3ccccc3c2n1CC(C)(C)CC1(C)OCCO1 [Example 22, 1-[2,2-Dimethyl-3-(2-methyl-[1,3]dioxolan-2-yl)propyl]-2-methyl-1H-imidazo[4,5-c]quinolin-4-amine]
melting point: 209 to 211 °C

CCCc1nc2c(N)nc3ccccc3c2n1CC(C)(C)CC1(C)OCCO1 [Example 23, 1-[2,2-Dimethyl-3-(2-methyl-[1,3]dioxolan-2-yl)propyl]-2-propyl-1H-imidazo[4,5-c]quinolin-4-amine]
melting point: 186 to 188 °C

CC(=O)CC(C)(C)Cn1c(C)nc2c(N)nc3ccccc3c21 [Example 24, 5-(4-Amino-2-methyl-1H-imidazo[4,5-c]quinolin-1-yl)-4,4-dimethylpentan-2-one]
melting point: 223 to 225 °C

CCCc1nc2c(N)nc3ccccc3c2n1CC(C)(C)CC(C)=O [Example 25, 5-(4-Amino-2-propyl-1H-imidazo[4,5-c]quinolin-1-yl)-4,4-dimethylpentan-2-one]
melting point: 178 to 180 °C

CCCc1nc2c(N)nc3ccccc3c2n1CCC(=O)OCC [Example 26, Ethyl 3-(4-amino-2-propyl-1H-imidazo[4,5-c]quinolin-1-yl)propionate]
melting point: 156 to 157 °C

CCCc1nc2c(N)nc3ccccc3c2n1CCCC(=O)OCC [Example 27, Ethyl 4-(4-amino-2-propyl-1H-imidazo[4,5-c]quinolin-1-yl)butyrate]
melting point: 154 to 156 °C

CCCc1nc2c(N)nc3ccccc3c2n1CCCCCC(=O)OCC [Example 28, Ethyl 6-(4-amino-2-propyl-1H-imidazo[4,5-c]quinolin-1-yl)hexanoate]
melting point: 112 to 113 °C

CCCc1nc2c(N)nc3ccccc3c2n1CC(OCC)OCC [Example 29, 1-(2,2-Diethoxyethyl)-2-propyl-1H-imidazo[4,5-c]quinolin-4-amine]
melting point: 148 to 150 °C

CCCc1nc2c(N)nc3ccccc3c2n1CCC(OCC)OCC [Example 30, 1-(3,3-Diethoxypropyl)-2-propyl-1H-imidazo[4,5-c]quinolin-4-amine]
melting point: 148 to 150 °C

CC(C)(Cn1cnc2c(N)nc3ccccc3c21)CC1(C)OCCO1 [Example 31, 1-[2,2-Dimethyl-3-(2-methyl[1,3]dioxolan-2-yl)propyl]-1H-imidazo[4,5-c]quinolin-4-amine]
melting point: 153 to 155 °C

CC(=O)CC(C)(C)Cn1cnc2c(N)nc3ccccc3c21 [Example 32, 5-(4-Amino-1H-imidazo[4,5-c]quinolin-1-yl)-4,4-dimethylpentan-2-one]
melting point: 214 to 216 °C

CCCc1nc2c(N)nc(C)c(C)c2n1CCCC(C)=O [Example 33, 5-(4-Amino-6,7-dimethyl-2-propyl-1H-imidazo[4,5-c]pyridin-1-yl)pentan-2-one]
melting point: 148.5 to 149.5 °C

CCOCc1nc2c(N)nc3ccccc3c2n1CCCC(=O)OCC [Example 34, Ethyl 4-[4-amino-2-(ethoxymethyl)-1H-imidazo[4,5-c]quinolin-1-yl]butanoate]
melting point: 129 to 131 °C

CCOCc1nc2c(N)nc3ccccc3c2n1CCCC(=O)N(C)OC [Example 35, 4-[4-Amino-2-(ethoxymethyl)-1H-imidazo[4,5-c]quinolin-1-yl]-N-methoxy-N-methylbutanamide]
melting point: 163 to 165 °C

CCCc1nc2c(N)nc3ccccc3c2n1CCCCC(=O)N(C)OC [Example 36, 5-(4-Amino-2-propyl-1H-imidazo[4,5-c]quinolin-1-yl)-N-methoxy-N-methylpentanamide]
melting point: 150 to 151 °C

CCOCc1nc2c(N)nc3ccccc3c2n1CC(=O)CC [Example 37, 1-[4-Amino-2-(ethoxymethyl)-1H-imidazo[4,5-c]quinolin-1-yl]butan-2-one]
melting point: 187 to 188 °C
